Test results: patent publication US6413969B1, “Gatifloxacin pentahydrate” (Bristol-Myers Squibb Company, priority 2000, dated 2002)

Assays:
[1] = tested on: broad spectrum of microorganisms including antibiotic-resistant strains of Streptococcus Pneumoniae; conditions: cited from earlier work
infections = conditions: cited from earlier work
[2] = parenterally and via oral administration; cited from earlier work
[3] = stability studies under stressed conditions of temperature and humidity; format: physicochemical
From the text: It has been found in accordance with the present invention that the advantageous stability and solubility properties of the pentahydrate of gatifloxacin can be applied to the formulation of pharmaceutical dosage forms. While the pentahydrate of gatifloxacin can be utilized to prepare tablets by wet granulation, it can also be formulated in accordance with the present invention into stable pharmaceutical solid dosage forms by conventional dry granulation. […] Such formulations will include conventional inert ingredients such as binders, excipients, disintegrants, and the like. Examples of such agents include various starch derivatives such as pregelatinized starch, hydroxypropyl cellulose microcrystalline cellulose, sodium starch glycolate, magnesium stearate, lactose, mannitol and the like.

[4] = aqueous solubility of the crystalline hydrates; format: physicochemical; conditions: for aqueous solubility (rank among the three major hydrates): water, 25° C., sesquihydrate, pentahydrate, hexahydrate compared
From the text: (§1) The crystal structures and ideal water content of seven of these forms were established through single crystal x-ray analyses. Each form gives rise to unique and characteristic single crystal and powder x-ray diffraction. The kinetic and thermodynamic relationships among the three major hydrates were investigated leading to the understanding of their stability order in water as a function of temperature and their interconversion relationship. […] The implications of these findings were very significant in the discovery and development of highly homogeneous gatifloxacin pentahydrate in accordance with the present invention. Further, these findings made it evident that very strict process controls were necessary in the production of crystalline gatifloxacin and dosage forms containing it and that it was necessary to obtain crystalline gatifloxacin pentahydrate in high homogeneity vs. the other crystalline forms in order to realize the advantageous properties thereof. By high homogeneity is meant that crystalline gatifloxacin pentahydrate must contain no detectable levels of the other crystalline forms thereof as determined by powder x-ray diffraction technique.

[5] = physical stability / interconversion of crystalline forms in water; format: physicochemical
From the text: as §1

[6] = cited from earlier work

COc1c(N2CCNC(C)C2)c(F)cc2c(=O)c(C(=O)O)cn(C3CC3)c12 (stereo not drawn) [Gatifloxacin, 1-cyclopropyl-6-fluoro-1,4-dihydro-8-methoxy-7-(3-methyl-1piperizinyl)-4-oxo-3-quinolinecarboxylic acid]
effectiveness against microorganisms [1]: effective | overall tolerability (infections; in vivo): excellent overall tolerability | safety and efficacy in treatment of infections (infections; individuals with impaired liver function): safe and efficacious | efficacy [2]: excellent efficacy

COc1c(N2CCNC(C)C2)c(F)cc2c(=O)c(C(=O)O)cn(C3CC3)c12 (stereo not drawn) [gatifloxacin pentahydrate, 1cyclopropyl-6-fluoro-1,4-dihydro-8-methoxy-7-(3-methyl-1-piperazinyl)-4-oxo-3-quinolinecarboxylic acid]
form change or other degradation [3]: no evidence of form change or other degradation | solubility compared with the metastable sesquihydrate ([4]; aqueous dosage forms): less soluble | aqueous solubility (rank among the three major hydrates) ([4]; listed as pentahydrate): lowest | physical stability of the crystalline form ([5]; compared with the other crystalline forms, conversion over time): most physically stable form

COc1c(N2CCNC(C)C2)c(F)cc2c(=O)c(C(=O)O)cn(C3CC3)c12 (stereo not drawn) [hemihydrate]
tendency to form higher hydrates ([5]; in the presence of water): definite tendency to form higher hydrates

COc1c(N2CCNC(C)C2)c(F)cc2c(=O)c(C(=O)O)cn(C3CC3)c12 (stereo not drawn) [sesquihydrate]
disintegration and dissolution rates of tablets in comparison to the hemihydrate ([6]; tablets made from the crystalline form): superior disintegration and dissolution rates | stability in comparison to the hemihydrate ([6]; varying conditions of humidity): enhanced stability | aqueous solubility (rank among the three major hydrates) [4]: highest
